Laboratory results published in patent publication US8598344B2, “CDKI pathway inhibitors and uses thereof” (Senex Biotechnology, priority 2009, dated 2013).
Where two headings read alike, the source gives them in different places.

Key:
[1] = test system: induction of transcription by p21 (CDKI pathway, CMV promoter-GFP) in HT1080 fibrosarcoma cells; assay: Cellular assay for CDKI pathway inhibition: CMV-GFP induction by IPTG-inducible p21 in HT1080 reporter cells; assay type: cell-based, human
Description: Briefly, the reporter cell line described in the above-referenced application, which carries IPTG (isopropyl-β-thio-galactoside)-inducible p21 gene together with a p21-inducible promoter driving the expression of Green Fluorescent Protein (GFP) was plated in 96-well plates, at 2000 cells per well for the no-IPTG arm of the assay and at 5000 cells per well for the IPTG arm of the assay. To induce the maximal levels of p21, IPTG was added to 50 μM concentration. Serial 2-fold dilutions of the tested compounds were added in quadruplicates to wells with and without IPTG, ˜10 min after IPTG addition.
This assay is based on the induction of green fluorescent protein (GFP) expression from the cytomegalovirus (CMV) promoter in human HT1080 fibrosarcoma cells that express CDKI p21 from an isopropyl-(3-thio-galactoside (IPTG)-inducible promoter. The compound activity as a CDKI pathway inhibitor is measured by its ability to prevent the stimulation of the CMV promoter upon the addition of p21-inducing IPTG. CMV promoter activity is measured by the ratio of GFP fluorescence to the relative cell number, as determined by staining cellular DNA with Hoechst 33342. This assay was conducted in two modes. […]

[2] = biological target: T1, CDK19 (Homo sapiens, UniProt Q9BWU1); assay: KinomeScan competition binding assay; details: read-out: CDK19 inhibition (Kd)
T1 construct: purchased KinomeScan, a division of Ambit Biosciences
From the text: (§1) This similarity led us to test SNX14 for the ability to inhibit 285 kinases, using the services of KinaseProfiler of Millipore Corporation (285 kinases). […] The KINOMEscan assay has been described in detail in Fabian et al., Nat. Biotechnol. 23: 329 (2005) and Karaman et al., Nat. Biotechnol. 26: 127 (2008).
(§2) The KinomeScan assay is based on a competition binding assay that quantitatively measures the ability of a compound to compete with an immobilized, ATP site directed ligand. The assay is performed by combining three components: DNA-tagged kinase; immobilized ligand; and a test compound. The ability of the test compound to compete with the immobilized ligand is measured via quantitative PCR of the DNA tag. […] The CDKs tested by Millipore for inhibition with SNX14 included CDK1, CDK2, CDK3, CDK5, CDK7 and CDK9; none of these were inhibited to less than 49 percent of control (POC) activity. The CDKs tested by KinomeScan for the effect of Compound 1 included CDK2, CDK3, CDK4, CDK5, CDK7, CDK8, CDK9 and CDK19; aside from CDK8 and CDK19, the strongest inhibited CDK was CDK7 (33% POC binding). To determine the inhibition of which kinases correlates with the biological activity of SNX2-class compounds, we tested eight additional compounds of the SNX2 family, which gave different IC50 values in the cellular assays, for the ability to affect 24 kinases that were most susceptible to compound 1, through the services of KinomeScan. […] We have also determined the binding constant (Kd) for SNX14, compound 1, compound 20, compound 26, compound 43 and compound 14 in kinase assays for CDK8 and CDK19 (Table 1).

[3] = biological target: T2, CDK8 (Homo sapiens, UniProt P49336); assay: KinomeScan competition binding assay; details: read-out: CDK8 inhibition (Kd)
T2 construct: purchased KinomeScan, a division of Ambit Biosciences
From the text: as §1, §2

[4] = biological target: T3, CDK1 (Homo sapiens, UniProt P06493); assay: KinaseProfiler (Millipore) kinase inhibition; assay type: biochemical; details: 10 μM
T3 construct: purchased KinaseProfiler of Millipore Corporation
From the text: as §1, §2

[5] = biological target: T4, CDK2 (Homo sapiens, UniProt P24941); assay: KinaseProfiler (Millipore) kinase inhibition; assay type: biochemical; details: 10 μM
T4 construct: purchased KinaseProfiler of Millipore Corporation
From the text: as §1, §2

[6] = biological target: T5, CDK3 (Homo sapiens, UniProt Q00526); assay: KinaseProfiler (Millipore) kinase inhibition; assay type: biochemical; details: 10 μM
T5 construct: purchased KinaseProfiler of Millipore Corporation
From the text: as §1, §2

[7] = biological target: T6, CDK5 (Homo sapiens, UniProt Q00535); assay: KinaseProfiler (Millipore) kinase inhibition; assay type: biochemical; details: 10 μM
T6 construct: purchased KinaseProfiler of Millipore Corporation
From the text: as §1, §2

[8] = biological target: T7, CDK9 (Homo sapiens, UniProt P50750); assay: KinaseProfiler (Millipore) kinase inhibition; assay type: biochemical; details: 10 μM
T7 construct: purchased KinaseProfiler of Millipore Corporation
From the text: as §1, §2

[9] = biological target: CDK7 (Homo sapiens, UniProt P50613); assay: KinaseProfiler (Millipore) kinase inhibition; assay type: biochemical; parameters: purchased KinaseProfiler of Millipore Corporation; details: 10 μM
From the text: as §1
as §2, with “binding).” for “binding). To determine the inhibition of which kinases correlates with the biological activity of SNX2-class compounds, we tested eight additional compounds of the SNX2 family, which gave different IC50 values in the cellular assays, for the ability to affect 24 kinases that were most susceptible to compound 1, through the services of KinomeScan.”

[10] = test system: human umbilical vein endothelial cells (HUVECs); details: Aoki et al., 2007; read-out: IC50, proliferation of HUVECs; cited from earlier work
[11] = test system: several other types of human cells; details: Aoki et al., 2007; read-out: antiproliferative activity against several other types of human cells; cited from earlier work
[12] = biological target: T1, CDK19; details: cited from earlier work
[13] = biological target: T8, CLK4 (Homo sapiens, UniProt Q9HAZ1); details: 10 μM; data from Cee et al. (2009); cited from earlier work
T8 construct: purchased KinomeScan, a division of Ambit Biosciences

[14] = biological target: T9, CIT (Homo sapiens, UniProt O14578); details: 10 μM; data from Cee et al. (2009); cited from earlier work
T9 construct: purchased KinomeScan, a division of Ambit Biosciences

[15] = biological target: T10, ROCK2 (Homo sapiens, UniProt O75116); details: cited from earlier work
T10 construct: purchased KinomeScan, a division of Ambit Biosciences

[16] = biological target: T11, LTK (Homo sapiens, UniProt P29376); details: 10 μM; data from Cee et al. (2009); cited from earlier work
T11 construct: purchased KinomeScan, a division of Ambit Biosciences

[17] = biological target: T12, ALK (Homo sapiens, UniProt Q9UM73); details: 10 μM; data from Cee et al. (2009); cited from earlier work
T12 construct: purchased KinomeScan, a division of Ambit Biosciences

[18] = biological target: T13, PIM2 (Homo sapiens, UniProt Q9P1W9); details: 10 μM; data from Cee et al. (2009); cited from earlier work
T13 construct: purchased KinomeScan, a division of Ambit Biosciences

[19] = biological target: T14, PKACa (Homo sapiens, UniProt P17612); details: 10 μM; data from Cee et al. (2009); cited from earlier work
T14 construct: purchased KinomeScan, a division of Ambit Biosciences

[20] = biological target: T15, PKACb (Homo sapiens, UniProt P22694); details: 10 μM; data from Cee et al. (2009); cited from earlier work
T15 construct: purchased KinomeScan, a division of Ambit Biosciences

[21] = biological target: T16, MET (Homo sapiens, UniProt P08581); details: 10 μM; data from Cee et al. (2009); cited from earlier work
T16 construct: purchased KinomeScan, a division of Ambit Biosciences

[22] = biological target: T17, PRKG2 (Homo sapiens, UniProt Q13237); details: 10 μM; data from Cee et al. (2009); cited from earlier work
T17 construct: purchased KinomeScan, a division of Ambit Biosciences

[23] = biological target: T18, RIOK2 (Homo sapiens, UniProt Q9BVS4); details: 10 μM; data from Cee et al. (2009); cited from earlier work
T18 construct: purchased KinomeScan, a division of Ambit Biosciences

[24] = biological target: T19, ROCK1 (Homo sapiens, UniProt Q13464); details: cited from earlier work
T19 construct: purchased KinomeScan, a division of Ambit Biosciences

[25] = biological target: T20, ROS1 (Homo sapiens, UniProt P08922); details: 10 μM; data from Cee et al. (2009); cited from earlier work
T20 construct: purchased KinomeScan, a division of Ambit Biosciences

[26] = biological target: T21, JNK1 (Homo sapiens, UniProt P45983); details: 10 μM; data from Cee et al. (2009); cited from earlier work
T21 construct: purchased KinomeScan, a division of Ambit Biosciences

[27] = 10 μM, data from Cee et al. (2009)

T1 sequence (Q9BWU1 whole entry): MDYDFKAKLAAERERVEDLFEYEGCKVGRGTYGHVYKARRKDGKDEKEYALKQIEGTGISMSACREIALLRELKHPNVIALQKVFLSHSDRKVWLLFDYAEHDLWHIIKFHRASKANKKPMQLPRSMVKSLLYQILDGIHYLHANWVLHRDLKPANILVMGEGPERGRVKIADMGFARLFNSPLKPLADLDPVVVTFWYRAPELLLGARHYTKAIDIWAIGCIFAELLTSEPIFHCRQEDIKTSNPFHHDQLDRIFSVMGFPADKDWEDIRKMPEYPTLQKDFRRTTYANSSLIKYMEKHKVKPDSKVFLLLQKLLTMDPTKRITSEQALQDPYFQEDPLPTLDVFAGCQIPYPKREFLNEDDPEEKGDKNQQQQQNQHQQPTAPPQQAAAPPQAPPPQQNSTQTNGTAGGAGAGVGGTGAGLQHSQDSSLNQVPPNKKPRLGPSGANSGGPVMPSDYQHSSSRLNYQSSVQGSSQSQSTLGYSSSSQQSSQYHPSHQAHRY
T19 sequence (Q13464 whole entry): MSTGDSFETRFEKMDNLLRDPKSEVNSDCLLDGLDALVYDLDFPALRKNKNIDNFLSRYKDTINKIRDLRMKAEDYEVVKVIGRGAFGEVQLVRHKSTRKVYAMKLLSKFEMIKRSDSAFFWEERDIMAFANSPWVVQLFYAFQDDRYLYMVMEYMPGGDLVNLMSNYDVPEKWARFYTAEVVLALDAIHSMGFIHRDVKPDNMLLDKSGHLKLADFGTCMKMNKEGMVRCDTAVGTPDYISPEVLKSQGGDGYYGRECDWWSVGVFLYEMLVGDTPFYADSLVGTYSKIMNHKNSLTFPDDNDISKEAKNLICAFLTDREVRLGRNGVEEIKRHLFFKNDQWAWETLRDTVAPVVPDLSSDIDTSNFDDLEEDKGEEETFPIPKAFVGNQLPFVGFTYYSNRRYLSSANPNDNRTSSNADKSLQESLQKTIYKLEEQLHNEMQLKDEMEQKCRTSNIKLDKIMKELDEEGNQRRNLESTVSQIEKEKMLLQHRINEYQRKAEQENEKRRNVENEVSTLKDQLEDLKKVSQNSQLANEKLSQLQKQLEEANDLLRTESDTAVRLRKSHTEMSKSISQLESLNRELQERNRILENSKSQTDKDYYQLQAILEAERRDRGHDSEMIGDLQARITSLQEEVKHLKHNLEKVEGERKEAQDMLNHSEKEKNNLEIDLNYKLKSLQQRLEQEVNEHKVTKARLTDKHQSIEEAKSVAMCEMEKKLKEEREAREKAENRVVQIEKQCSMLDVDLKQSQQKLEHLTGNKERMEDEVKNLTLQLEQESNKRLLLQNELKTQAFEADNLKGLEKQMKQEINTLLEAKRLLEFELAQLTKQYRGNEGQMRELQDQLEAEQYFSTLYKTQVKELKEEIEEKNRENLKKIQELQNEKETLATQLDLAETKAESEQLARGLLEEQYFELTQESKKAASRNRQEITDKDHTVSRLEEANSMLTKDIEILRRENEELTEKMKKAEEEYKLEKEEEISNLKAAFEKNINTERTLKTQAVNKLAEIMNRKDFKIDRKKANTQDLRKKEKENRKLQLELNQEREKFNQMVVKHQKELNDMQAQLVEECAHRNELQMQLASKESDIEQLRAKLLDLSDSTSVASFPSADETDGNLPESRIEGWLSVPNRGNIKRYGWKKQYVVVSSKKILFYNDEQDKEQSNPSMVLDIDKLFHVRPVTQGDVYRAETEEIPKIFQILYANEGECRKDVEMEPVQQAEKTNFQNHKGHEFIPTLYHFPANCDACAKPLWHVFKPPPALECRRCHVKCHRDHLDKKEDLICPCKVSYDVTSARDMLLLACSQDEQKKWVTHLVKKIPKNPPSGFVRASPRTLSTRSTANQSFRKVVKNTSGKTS
T10 sequence (O75116 whole entry): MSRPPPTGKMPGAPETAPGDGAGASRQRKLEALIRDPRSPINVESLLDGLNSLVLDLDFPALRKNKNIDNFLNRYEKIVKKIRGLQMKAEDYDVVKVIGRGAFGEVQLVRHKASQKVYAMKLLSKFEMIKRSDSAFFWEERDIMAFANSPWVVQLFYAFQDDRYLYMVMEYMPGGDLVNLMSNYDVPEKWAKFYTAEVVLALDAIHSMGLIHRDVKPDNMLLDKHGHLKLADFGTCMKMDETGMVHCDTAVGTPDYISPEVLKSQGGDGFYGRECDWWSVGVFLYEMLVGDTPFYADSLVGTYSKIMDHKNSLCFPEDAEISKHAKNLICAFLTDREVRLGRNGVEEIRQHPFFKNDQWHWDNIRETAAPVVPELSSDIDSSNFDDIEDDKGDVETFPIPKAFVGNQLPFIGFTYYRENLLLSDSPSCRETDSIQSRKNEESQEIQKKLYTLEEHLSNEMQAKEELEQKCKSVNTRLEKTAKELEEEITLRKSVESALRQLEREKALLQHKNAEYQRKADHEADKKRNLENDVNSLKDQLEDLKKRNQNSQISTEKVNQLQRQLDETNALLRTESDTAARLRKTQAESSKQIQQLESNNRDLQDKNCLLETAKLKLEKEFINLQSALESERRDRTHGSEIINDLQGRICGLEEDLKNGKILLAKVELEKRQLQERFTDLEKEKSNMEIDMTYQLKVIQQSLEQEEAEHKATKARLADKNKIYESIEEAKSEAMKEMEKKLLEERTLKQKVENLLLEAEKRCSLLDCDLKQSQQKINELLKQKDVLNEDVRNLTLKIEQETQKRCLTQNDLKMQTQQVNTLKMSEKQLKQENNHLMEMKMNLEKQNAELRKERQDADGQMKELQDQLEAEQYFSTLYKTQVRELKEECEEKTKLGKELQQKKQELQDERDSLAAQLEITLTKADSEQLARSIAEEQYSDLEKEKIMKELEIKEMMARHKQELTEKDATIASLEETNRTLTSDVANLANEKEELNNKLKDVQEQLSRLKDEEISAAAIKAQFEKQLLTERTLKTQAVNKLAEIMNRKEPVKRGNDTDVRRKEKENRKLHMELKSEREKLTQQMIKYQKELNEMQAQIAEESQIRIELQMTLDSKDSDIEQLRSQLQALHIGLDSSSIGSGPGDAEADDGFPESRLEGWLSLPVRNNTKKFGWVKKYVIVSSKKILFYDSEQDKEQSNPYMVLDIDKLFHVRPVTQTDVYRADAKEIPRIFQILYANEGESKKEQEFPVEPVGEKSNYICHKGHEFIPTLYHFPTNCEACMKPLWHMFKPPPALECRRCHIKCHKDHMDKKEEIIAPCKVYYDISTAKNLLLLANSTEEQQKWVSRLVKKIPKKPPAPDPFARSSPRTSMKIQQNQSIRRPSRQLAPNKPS
T3 sequence (P06493 whole entry): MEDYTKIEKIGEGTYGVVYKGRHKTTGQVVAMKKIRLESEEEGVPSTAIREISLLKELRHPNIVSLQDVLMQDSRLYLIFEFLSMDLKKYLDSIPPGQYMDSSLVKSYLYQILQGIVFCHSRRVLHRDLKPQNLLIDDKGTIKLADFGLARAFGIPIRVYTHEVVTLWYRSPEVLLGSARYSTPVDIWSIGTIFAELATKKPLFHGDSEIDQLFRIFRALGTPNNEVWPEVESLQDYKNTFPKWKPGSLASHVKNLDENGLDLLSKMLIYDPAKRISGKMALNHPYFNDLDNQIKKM
T3 sequence (P14635 whole entry partner): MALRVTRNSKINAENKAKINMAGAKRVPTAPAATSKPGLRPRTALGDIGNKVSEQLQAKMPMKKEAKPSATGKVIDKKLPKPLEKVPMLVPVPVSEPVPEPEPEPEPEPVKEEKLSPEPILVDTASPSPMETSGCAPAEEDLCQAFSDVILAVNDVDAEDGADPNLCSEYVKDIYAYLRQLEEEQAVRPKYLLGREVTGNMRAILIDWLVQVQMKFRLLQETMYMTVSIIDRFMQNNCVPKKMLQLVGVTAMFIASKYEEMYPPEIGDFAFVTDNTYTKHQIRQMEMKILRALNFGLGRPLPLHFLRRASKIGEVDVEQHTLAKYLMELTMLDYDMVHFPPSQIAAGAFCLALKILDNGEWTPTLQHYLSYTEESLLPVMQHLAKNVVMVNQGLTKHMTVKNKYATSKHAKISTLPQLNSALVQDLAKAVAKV
Chain of CDK7 (P50613 whole entry): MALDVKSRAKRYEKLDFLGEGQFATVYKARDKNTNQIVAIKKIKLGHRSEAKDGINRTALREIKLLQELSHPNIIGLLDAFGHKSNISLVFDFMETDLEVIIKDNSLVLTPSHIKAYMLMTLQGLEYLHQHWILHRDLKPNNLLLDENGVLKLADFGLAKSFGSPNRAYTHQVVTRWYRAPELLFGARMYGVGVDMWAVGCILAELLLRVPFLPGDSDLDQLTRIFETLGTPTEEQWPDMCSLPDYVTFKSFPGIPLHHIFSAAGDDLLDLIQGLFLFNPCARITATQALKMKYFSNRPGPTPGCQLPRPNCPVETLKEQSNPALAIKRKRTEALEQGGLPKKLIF
Chain of CDK7 (P51946 whole entry partner): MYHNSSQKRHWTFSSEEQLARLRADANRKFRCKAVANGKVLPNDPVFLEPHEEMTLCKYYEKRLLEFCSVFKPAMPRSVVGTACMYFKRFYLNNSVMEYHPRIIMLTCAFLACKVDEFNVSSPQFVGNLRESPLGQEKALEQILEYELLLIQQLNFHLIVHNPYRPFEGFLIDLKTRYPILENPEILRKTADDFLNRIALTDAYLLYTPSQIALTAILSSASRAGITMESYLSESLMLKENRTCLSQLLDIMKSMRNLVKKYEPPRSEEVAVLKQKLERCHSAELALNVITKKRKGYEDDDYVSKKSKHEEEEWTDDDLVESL
Chain of CDK7 (P51948 whole entry partner): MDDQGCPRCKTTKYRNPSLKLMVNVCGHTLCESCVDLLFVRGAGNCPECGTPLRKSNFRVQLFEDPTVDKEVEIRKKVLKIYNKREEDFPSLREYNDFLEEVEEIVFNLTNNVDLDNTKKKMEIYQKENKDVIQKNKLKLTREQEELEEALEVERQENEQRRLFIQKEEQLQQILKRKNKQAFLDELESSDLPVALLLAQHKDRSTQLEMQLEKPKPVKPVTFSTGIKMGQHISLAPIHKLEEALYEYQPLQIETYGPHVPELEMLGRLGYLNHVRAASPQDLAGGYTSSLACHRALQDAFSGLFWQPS

CC(C)Nc1ncnc2ccc(I)cc12 [SNX14]
IC50 ([1]; Table 1, IC50 calculated on the basis of the maximal inhibition produced by the highest doses, IPTG mode (50 μM or 2 μM) not stated, read-out: Cell-based assay (IC50)): 6.43 µM
Kd [2]: 3.8 µM
Kd [3]: 10 µM
percent of control (POC) activity, CDK1 [4]: ≥ 49% of control (POC)
percent of control (POC) activity, CDK2 [5]: ≥ 49% of control (POC)
percent of control (POC) activity, CDK3 [6]: ≥ 49% of control (POC)
percent of control (POC) activity, CDK5 [7]: ≥ 49% of control (POC)
percent of control (POC) activity, CDK9 [8]: ≥ 49% of control (POC)
percent of control (POC) activity, CDK7 [9]: ≥ 49% of control (POC)

Ic1ccc2ncnc(NCCc3ccccc3)c2c1 [compound 3]
IC50 ([1]; read-out: IC50, p21 induced by 8 μM IPTG, 8 μM IPTG, 72 hours): 1.85 µM

COc1cc2ncnc(Nc3ccc(F)c(Cl)c3)c2cc1OCCCN1CCOCC1 [gefitinib, reference compound]
CDKI pathway inhibition [1]: inactive

cortistatin A
IC50 [10]: 0.0018 µM
IC50 [11]: 6 to 7 µM
POC, CDK19 [12, 27]: 0.1 POC
Kd ([12]; Cee et al. (2009)): 0.01 µM
POC, CLK4 [13]: 26 POC
POC, CIT [14]: 28 POC
POC, ROCK2 (ROCK II) [15, 27]: 0 POC
Kd ([15]; Cee et al. (2009), read-out: Kd ROCK II): 0.22 µM
POC, LTK [16]: 2.9 POC
POC, ALK [17]: 4.4 POC
POC, PIM2 [18]: 4.4 POC
POC, PKACa [19]: 8.7 POC
POC, PKACb [20]: 13 POC
POC, MET [21]: 18 POC
POC, PRKG2 [22]: 21 POC
POC, RIOK2 [23]: 21 POC
POC, ROCK1 [24, 27]: 21 POC
Kd ([24]; Cee et al. (2009), read-out: Kd ROCK I): 0.25 µM
POC, ROS1 [25]: 26 POC
POC, JNK1 [26]: 29 POC
